The values that follow come from patent US12115213B2, “Methods of treating fungal infections” (priority 2016, dated 2024).

Peptide text beside a SMILES is read from it. * marks the point of attachment. Cbz = O=C(OCc1ccccc1)*

The assay deals with wild-type H99 strain. The assay can be described thus: Proteasome inhibitor / SDS sensitivity growth assay. It is filed as cell-based, Cryptococcus neoformans. The settings on record: for growth of wild type and complemented strain with SDS and proteasome inhibitor: YPD with 0.025% SDS plus inhibitor. As for the experimental part: For SDS sensitivity testing, SDS was added to YPD to a final concentration of 0.2% (wt/vol), and 2× serial dilutions were prepared in 96-well plates. Cells of H99, the fbp1Δ mutant, and its complemented strain were added to the wells to a final optical density at 600 nm (OD600) of 0.01. The plates were kept at 30° C., and the OD600 was measured every 24 h. […] Twofold serial dilutions were prepared in 96-well plates. The wild-type H99 strain was added to the well containing proteasome inhibitors (MG132 or […]) and SDS to a final OD600 of 0.01. The fbp1Δ mutant was added to YPD with 0.025% SDS only to a final OD600 of 0.01. The growth of cultures was determined by measuring the OD600 every 24 h.
To test whether SDS sensitivity is regulated by the SCF(Fbp1) E3 ligase function, the effects of proteasome inhibitors on Cryptococcus SDS sensitivity was investigated. Fungal growth rates of the wild-type H99 strain, the fp1Δ mutant, and its complemented strain on YPD medium containing 0.025% SDS were determined in the absence or presence of the proteasome inhibitor MG132 or PS-341. MG132 is a cell-permeative proteasome inhibitor which can reduce the degradation of ubiquitin-conjugated proteins by the 26S complex without affecting its ATPase or isopeptidase activity. PS-341 is a potent and reversible proteasome inhibitor that functions to […]. […] Therefore, without wishing to be bound by theory, certain substrates of Fbp1 may also participate in regulation of cell membrane integrity.

Consider `CC(C)C[C@H](NC(=O)[C@H](Cc1ccccc1)NC(=O)c1cnccn1)B(O)O` [PS-341], for which the “growth of wild type and complemented strain with SDS and proteasome inhibitor” value is recorded as “significant growth defect”. Besides, the “effect on growth of the wild-type strain or the mutant, inhibitor alone” value (100 μM PS-341, YPD without SDS) is “Neither 25 μM MG132 nor 100 μM PS-341 alone affected the growth”.
On to `CC(C)C[C@@H](C=O)NC(=O)[C@H](CC(C)C)NC(=O)[C@H](CC(C)C)NC(=O)OCc1ccccc1` [MG132] (Cbz-Leu-Leu-Leu-aldehyde), for which the “growth of wild type and complemented strain with SDS and proteasome inhibitor” value is given as “significant growth defect”. In addition, the “effect on growth of the wild-type strain or the mutant, inhibitor alone” value (25 μM MG132, YPD without SDS) is given as “Neither 25 μM MG132 nor 100 μM PS-341 alone affected the growth”.
